In ChEMBL document CHEMBL1782045, “Discovery, synthesis, and investigation of the antitumor activity of novel piperazinylpyrimidine derivatives” (Eur J Med Chem, 2011):

Tests used:
[1] = molecular target: Casein kinase I isoform alpha (Homo sapiens) (UniProt P48729); test: Binding affinity to human CSNK1A1 at 10 uM incubated for 1 hr by kinase binding assay relative to untreated control
TK-10 [2] = test: Growth inhibition of human TK10 cells after 48 hrs by sulforhodamine B assay; format: functional; details: TK-10, 48 h
[3] = molecular target: Hepatocyte growth factor receptor (Homo sapiens, UniProt P08581); test: Inhibition of human MET using gamma-33P-ATP as substrate assessed as enzyme functional activity at 1 uM by scintillation counting relative to untreated control; design: scale not given: the % may be the effect or the level left
Chain of Hepatocyte growth factor receptor (P08581 whole entry): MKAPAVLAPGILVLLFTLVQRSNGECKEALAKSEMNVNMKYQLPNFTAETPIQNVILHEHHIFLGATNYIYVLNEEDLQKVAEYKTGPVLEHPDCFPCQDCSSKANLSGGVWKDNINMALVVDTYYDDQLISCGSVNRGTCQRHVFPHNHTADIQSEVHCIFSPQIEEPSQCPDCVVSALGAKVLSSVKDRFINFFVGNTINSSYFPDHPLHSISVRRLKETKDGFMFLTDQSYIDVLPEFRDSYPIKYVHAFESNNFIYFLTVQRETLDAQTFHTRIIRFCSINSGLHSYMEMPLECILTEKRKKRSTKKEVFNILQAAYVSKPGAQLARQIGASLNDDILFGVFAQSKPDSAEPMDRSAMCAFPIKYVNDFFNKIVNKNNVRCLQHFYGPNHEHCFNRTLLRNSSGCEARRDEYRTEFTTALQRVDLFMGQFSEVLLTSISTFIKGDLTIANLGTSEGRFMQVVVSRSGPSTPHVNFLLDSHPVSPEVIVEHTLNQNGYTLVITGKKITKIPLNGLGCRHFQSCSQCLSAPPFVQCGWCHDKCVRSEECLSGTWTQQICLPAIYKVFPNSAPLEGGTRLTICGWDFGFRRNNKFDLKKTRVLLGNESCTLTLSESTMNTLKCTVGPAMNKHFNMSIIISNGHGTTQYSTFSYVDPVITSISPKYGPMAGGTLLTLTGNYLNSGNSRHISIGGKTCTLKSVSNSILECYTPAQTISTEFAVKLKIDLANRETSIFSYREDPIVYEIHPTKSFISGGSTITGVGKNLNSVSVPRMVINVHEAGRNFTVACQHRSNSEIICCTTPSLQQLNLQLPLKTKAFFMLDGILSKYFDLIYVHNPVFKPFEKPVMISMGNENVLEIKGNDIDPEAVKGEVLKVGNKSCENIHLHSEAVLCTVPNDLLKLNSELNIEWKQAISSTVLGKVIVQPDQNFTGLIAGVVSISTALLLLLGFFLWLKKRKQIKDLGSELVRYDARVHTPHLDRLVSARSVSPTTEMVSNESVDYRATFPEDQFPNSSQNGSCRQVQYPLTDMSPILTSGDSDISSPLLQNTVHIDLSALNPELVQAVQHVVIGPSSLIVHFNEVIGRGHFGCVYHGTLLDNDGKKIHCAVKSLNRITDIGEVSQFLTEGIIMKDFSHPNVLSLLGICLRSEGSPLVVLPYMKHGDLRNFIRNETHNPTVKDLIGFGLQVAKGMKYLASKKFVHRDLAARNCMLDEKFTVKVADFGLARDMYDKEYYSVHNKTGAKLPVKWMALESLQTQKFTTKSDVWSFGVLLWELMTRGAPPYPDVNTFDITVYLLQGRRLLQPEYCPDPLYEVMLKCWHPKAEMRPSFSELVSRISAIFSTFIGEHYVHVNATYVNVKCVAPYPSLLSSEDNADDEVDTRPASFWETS

Malme-3M = test: Cytotoxicity against human MALME-3M cells after 48 hrs by sulforhodamine B assay; format: cell-based
[4] = molecular target: RAC-beta serine/threonine-protein kinase (Homo sapiens) (UniProt P31751); test: Inhibition of human PKBbeta using gamma-33P-ATP as substrate assessed as enzyme functional activity at 1 uM by scintillation counting relative to untreated control; design: scale not given: the % may be the effect or the level left
Chain of RAC-beta serine/threonine-protein kinase (Homo sapiens) (P31751 whole entry): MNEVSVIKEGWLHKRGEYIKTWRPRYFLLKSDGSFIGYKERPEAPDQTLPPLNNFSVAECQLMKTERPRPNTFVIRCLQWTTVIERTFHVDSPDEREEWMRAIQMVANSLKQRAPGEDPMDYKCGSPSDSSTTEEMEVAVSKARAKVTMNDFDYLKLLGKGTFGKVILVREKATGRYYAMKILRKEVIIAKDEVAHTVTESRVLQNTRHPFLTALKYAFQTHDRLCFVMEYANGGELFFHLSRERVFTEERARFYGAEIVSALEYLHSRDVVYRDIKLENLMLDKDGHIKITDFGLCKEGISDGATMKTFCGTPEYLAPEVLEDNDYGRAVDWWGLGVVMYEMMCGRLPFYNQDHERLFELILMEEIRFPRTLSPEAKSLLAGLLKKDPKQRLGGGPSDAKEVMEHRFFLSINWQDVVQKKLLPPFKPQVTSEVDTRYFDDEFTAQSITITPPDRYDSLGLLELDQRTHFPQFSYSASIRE

[5] = test system: T1, Receptor-type tyrosine-protein kinase FLT3 (Homo sapiens), P36888 [K663Q]; test: Binding affinity to human FLT3 K663Q mutant at 10 uM incubated for 1 hr by kinase binding assay relative to untreated control
T1 sequence (whole entry): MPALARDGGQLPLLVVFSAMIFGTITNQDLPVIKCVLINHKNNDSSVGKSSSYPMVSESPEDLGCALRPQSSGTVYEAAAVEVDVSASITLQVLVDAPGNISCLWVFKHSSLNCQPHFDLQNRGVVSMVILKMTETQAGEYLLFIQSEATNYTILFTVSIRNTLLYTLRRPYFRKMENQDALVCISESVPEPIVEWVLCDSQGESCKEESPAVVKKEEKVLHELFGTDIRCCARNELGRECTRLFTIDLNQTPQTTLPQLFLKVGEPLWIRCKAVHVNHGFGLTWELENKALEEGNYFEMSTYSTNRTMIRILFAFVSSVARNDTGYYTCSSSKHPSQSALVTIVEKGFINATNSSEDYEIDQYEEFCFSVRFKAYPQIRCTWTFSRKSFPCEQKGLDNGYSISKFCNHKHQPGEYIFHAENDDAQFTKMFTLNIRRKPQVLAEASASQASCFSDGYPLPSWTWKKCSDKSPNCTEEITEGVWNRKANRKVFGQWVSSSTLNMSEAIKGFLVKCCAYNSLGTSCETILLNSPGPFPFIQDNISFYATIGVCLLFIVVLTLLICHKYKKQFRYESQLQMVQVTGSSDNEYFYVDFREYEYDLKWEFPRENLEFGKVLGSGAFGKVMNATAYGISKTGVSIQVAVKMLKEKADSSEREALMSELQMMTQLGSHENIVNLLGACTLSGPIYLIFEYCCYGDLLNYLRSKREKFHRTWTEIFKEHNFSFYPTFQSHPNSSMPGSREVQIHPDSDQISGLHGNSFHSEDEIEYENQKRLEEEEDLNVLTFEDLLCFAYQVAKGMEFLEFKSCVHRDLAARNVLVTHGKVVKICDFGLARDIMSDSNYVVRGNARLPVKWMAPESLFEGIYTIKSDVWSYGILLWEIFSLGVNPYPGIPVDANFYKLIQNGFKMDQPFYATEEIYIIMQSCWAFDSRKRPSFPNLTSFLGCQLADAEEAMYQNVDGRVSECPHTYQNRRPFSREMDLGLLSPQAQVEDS

NCI/ADR-RES = test: Cytotoxicity against human NCI/ADR-RES cells after 48 hrs by sulforhodamine B assay; format: cell-based
[6] = molecular target: Macrophage colony-stimulating factor 1 receptor (Homo sapiens) (UniProt P07333); test: Binding affinity to human CSF1R at 10 uM incubated for 1 hr by kinase binding assay relative to untreated control
Chain of Macrophage colony-stimulating factor 1 receptor (Homo sapiens) (P07333 whole entry): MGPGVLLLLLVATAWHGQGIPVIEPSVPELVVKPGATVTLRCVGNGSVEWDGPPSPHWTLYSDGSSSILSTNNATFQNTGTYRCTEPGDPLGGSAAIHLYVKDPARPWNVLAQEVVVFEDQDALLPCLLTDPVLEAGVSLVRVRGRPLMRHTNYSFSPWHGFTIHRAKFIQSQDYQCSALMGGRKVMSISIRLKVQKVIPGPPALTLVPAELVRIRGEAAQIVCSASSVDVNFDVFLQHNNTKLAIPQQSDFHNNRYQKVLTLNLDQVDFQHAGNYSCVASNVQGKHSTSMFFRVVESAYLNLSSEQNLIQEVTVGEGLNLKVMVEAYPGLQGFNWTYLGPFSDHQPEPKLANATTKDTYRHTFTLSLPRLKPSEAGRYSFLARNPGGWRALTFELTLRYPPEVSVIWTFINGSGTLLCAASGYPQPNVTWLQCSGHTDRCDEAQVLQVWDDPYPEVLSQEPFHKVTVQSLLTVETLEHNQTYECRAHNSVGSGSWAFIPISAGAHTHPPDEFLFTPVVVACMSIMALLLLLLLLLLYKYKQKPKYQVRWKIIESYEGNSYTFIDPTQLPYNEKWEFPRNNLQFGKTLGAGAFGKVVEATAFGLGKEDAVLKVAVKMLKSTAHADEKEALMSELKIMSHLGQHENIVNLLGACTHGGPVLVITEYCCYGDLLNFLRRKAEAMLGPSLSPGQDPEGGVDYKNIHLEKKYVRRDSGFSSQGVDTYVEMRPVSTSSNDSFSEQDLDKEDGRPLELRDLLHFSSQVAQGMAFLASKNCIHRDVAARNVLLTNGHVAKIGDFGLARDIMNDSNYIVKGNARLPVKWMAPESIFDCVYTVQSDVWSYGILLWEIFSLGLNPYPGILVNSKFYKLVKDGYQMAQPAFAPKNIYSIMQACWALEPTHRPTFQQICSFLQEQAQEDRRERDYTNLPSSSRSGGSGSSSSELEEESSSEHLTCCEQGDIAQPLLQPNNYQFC

[7] = molecular target: T2, Receptor-interacting serine/threonine-protein kinase 1 (Homo sapiens) (UniProt Q13546); test: Binding affinity to human RIPK1 at 10 uM incubated for 1 hr by kinase binding assay relative to untreated control
T2 sequence (whole entry): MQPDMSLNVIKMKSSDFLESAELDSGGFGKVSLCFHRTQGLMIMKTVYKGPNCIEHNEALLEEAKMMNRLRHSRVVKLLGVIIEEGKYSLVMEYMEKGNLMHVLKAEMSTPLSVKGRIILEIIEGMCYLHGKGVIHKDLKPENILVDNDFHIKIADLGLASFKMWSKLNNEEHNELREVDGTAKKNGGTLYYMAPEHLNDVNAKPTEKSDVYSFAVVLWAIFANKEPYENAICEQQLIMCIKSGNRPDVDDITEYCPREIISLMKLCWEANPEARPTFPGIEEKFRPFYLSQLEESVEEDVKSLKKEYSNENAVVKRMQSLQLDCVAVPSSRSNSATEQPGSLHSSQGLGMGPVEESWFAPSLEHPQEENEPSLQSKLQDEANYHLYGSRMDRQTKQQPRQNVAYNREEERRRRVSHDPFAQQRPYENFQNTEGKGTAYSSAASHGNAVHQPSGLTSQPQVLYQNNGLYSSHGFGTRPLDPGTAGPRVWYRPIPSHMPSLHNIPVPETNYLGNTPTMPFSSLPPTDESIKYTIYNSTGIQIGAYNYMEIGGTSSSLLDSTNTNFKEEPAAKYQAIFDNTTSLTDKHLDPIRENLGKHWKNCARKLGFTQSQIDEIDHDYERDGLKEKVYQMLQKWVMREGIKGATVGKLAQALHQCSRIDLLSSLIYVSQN

OVCAR-3 [8] = test: Growth inhibition of human OVCAR3 cells after 48 hrs by sulforhodamine B assay; format: functional; details: OVCAR-3, 48 h
U-251 [9] = test: Cytotoxicity against human U251 cells after 48 hrs by sulforhodamine B assay; format: cell-based; details: u-251, 48 h
OVCAR-3 [10] = test: Cytotoxicity against human OVCAR3 cells after 48 hrs by sulforhodamine B assay; format: cell-based; details: ovcar-3, 48 h
[11] = molecular target: Cyclin-dependent kinase 19 (Homo sapiens) (UniProt Q9BWU1); test: Binding affinity to human CDK11 at 10 uM incubated for 1 hr by kinase binding assay relative to untreated control
Chain of Cyclin-dependent kinase 19 (Homo sapiens) (Q9BWU1 whole entry): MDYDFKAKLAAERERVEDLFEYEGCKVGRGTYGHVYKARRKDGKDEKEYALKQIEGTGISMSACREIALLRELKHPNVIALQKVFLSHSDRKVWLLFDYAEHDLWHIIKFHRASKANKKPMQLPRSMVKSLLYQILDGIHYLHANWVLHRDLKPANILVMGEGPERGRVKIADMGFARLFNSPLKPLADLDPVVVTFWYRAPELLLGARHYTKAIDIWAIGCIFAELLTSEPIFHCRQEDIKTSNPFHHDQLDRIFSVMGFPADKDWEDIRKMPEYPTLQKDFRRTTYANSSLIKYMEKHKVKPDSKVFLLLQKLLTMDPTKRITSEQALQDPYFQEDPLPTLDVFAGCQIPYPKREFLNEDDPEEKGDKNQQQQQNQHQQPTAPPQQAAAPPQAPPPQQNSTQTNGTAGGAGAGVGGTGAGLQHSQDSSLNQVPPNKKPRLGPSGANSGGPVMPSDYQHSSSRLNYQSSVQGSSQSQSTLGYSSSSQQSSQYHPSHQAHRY

MDA-MB-231 = test: Growth inhibition of human MDA-MB-231 cells after 48 hrs by sulforhodamine B assay; format: functional; details: MDA-MB-231, 48 h
TK-10 [12] = test: Cytotoxicity against human TK10 cells after 48 hrs by sulforhodamine B assay; format: cell-based; details: tk-10, 48 h
K562 = test: Cytotoxicity against human K562 cells after 48 hrs by sulforhodamine B assay; format: cell-based; details: k562, 48 h
U-251 [13] = test: Growth inhibition of human U251 cells after 48 hrs by sulforhodamine B assay; format: functional; details: U-251, 48 h
MDA-MB-435 = test: Cytotoxicity against human MDA-MB-435 cells after 48 hrs by sulforhodamine B assay; format: cell-based; details: mda-mb-435, 48 h
KM12 = test: Growth inhibition of human KM12 cells after 48 hrs by sulforhodamine B assay; format: functional; details: KM12, 48 h
[14] = molecular target: Serine/threonine-protein kinase B-raf (Homo sapiens) (UniProt P15056); test: Binding affinity to human BRAF at 10 uM incubated for 1 hr by kinase binding assay relative to untreated control
Chain of Serine/threonine-protein kinase B-raf (Homo sapiens) (P15056 whole entry): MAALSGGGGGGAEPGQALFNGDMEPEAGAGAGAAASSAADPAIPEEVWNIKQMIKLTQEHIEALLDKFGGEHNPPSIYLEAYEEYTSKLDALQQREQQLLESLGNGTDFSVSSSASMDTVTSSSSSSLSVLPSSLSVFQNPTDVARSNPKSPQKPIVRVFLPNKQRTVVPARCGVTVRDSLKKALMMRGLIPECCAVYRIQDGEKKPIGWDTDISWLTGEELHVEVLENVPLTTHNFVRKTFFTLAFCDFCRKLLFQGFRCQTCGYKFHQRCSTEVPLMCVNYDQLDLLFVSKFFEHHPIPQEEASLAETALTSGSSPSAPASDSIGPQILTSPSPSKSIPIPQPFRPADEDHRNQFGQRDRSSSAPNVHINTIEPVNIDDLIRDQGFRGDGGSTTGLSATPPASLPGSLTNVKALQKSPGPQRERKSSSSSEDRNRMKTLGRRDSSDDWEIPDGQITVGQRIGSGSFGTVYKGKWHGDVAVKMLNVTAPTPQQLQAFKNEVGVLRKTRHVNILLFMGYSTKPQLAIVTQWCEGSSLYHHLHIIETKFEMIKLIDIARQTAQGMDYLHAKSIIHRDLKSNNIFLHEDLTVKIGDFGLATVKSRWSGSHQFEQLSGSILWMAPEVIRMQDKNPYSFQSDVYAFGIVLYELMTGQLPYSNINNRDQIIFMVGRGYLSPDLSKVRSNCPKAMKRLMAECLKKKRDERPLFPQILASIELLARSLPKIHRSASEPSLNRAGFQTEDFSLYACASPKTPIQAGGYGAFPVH

NCI-H460 = test: Growth inhibition of human NCI-H460 cells after 48 hrs by sulforhodamine B assay; format: functional; details: NCI-H460, 48 h

Chain of Casein kinase I isoform alpha (Homo sapiens) (P48729 2-337 limits assumed): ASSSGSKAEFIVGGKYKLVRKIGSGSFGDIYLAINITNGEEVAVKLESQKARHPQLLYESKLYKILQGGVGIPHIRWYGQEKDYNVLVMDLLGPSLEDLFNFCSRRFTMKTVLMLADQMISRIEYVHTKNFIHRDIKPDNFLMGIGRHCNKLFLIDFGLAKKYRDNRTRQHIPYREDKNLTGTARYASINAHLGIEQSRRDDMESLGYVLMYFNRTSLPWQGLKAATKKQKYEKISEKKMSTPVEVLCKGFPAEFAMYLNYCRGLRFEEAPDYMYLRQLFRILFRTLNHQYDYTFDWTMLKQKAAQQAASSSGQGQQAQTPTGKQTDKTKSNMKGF

Structure (SMILES) | Activity [1] | TGI (TK-10 [2]) | Activity [3] | LC50 (Malme-3M) | Activity [4] | Activity [5] | LC50 (NCI/ADR-RES) | Activity [6] | Activity [7] | TGI (OVCAR-3 [8]) | LC50 (U-251 [9]) | LC50 (OVCAR-3 [10]) | Activity [11] | TGI (MDA-MB-231) | LC50 (TK-10 [12]) | LC50 (K562) | TGI (U-251 [13]) | LC50 (MDA-MB-435) | TGI (KM12) | Activity [14] | also measured
O=C(c1cccc(Nc2ncnc3ccccc23)c1)N1CCN(c2ncc(Cc3ccccc3)cn2)CC1 | > 50% | 6.17 µM | 100% | 5.25 µM | 83% | > 50% | > 100 µM | > 50% | 19% | 8.13 µM | > 100 µM | > 100 µM | > 50% | 2.95 µM | 39.81 µM | > 100 µM | 6.61 µM | 4.57 µM | 2.4 µM | > 50% | TGI (NCI-H460): 4.27 µM
CCc1cnc(N2CCN(C(=O)c3ccc(CNc4ncnc5ccccc45)cc3)CC2)nc1 | 36% | > 100 µM | 100% | > 100 µM | 82% | > 50% | > 100 µM | > 50% | > 50% | > 100 µM | > 100 µM | > 100 µM | 47% | 84.9 µM | > 100 µM | > 100 µM | > 100 µM | > 100 µM | 24.3 µM | 34% | TGI (NCI-H460): 30.7 µM
c1ccc(Cc2cnc(N3CCN(c4ncnc5ccccc45)CC3)nc2)cc1 | > 50% | 60.8 µM | 75% | 89.2 µM | 89% | 4% | 66.4 µM | 31% | 3.5% | 23.2 µM | 54.1 µM | 48.2 µM | 0% | 38.1 µM | > 100 µM | > 100 µM | 24.6 µM | 91.4 µM | 25.1 µM | > 50% | TGI (NCI-H460): 23.7 µM
